Data published in patent publication US8232319B2, “Amino phosphate derivative and S1P receptor modulator having same as an active ingredient” (Kyorin Pharmaceutical Co., Ltd., priority 2006, dated 2012).

Tests used:
Format in all cases: cell-based
Details in all cases: Fluo 3, 100% = S1P at 10^-6 M
human S1P3 receptor = target: T1, human S1P3 receptor (Homo sapiens, UniProt Q99500); assay: Intracellular calcium mobilization induced test, hS1P3 receptors expressing CHO-K1 cells
T1 construct: expressed in transfected cells; host or cells: CHO-K1
Procedure: (§1) Intracellular Calcium Mobilization Induced Test of a Subject Compound Against Human S1P (sphingosine-1-phosphate) Receptor-expressing Cells
(§2) Human S1P receptors expressing CHO-K1 cells (hS1P1 receptors expressing CHO-K1 cells, hS1P3 receptors expressing CHO-K1 cells, and hS1P4 receptors expressing CHO-K1 cells), were maintained in Ham's F-12 medium containing 10% fetal bovine serum and 400 μg/mL Geneticin. Into a black, clear bottom, culture plate (BD Falcon) with 96 wells, 7×10^4 cells/well of the hS1P1 and hS1P3 receptors expressing CHO-K1 cells were plated, and […] of the hS1P4 receptors expressing CHO-K1 cells were plated. The cells were incubated overnight at 37° C. at 5% CO2. The medium in the wells were removed by suction. A loading buffer included in a Calcium Kit-Fluo 3 reagent (Dojindo Laboratories) was added as a fluorescent Ca^2+-binding indicator. The cells were incubated for 80 minutes at 37° C. at 5% CO2. After the incubation, the wells were washed with PBS. A recording buffer included in a Calcium Kit-Fluo 3 reagent was added, and the cells were incubated for 20 minutes at 37° C. at 5% CO2. Using a microplate spectrophotofluorometer (FLEX Station, Molecular Devices), the fluorescence intensity at an excitation wavelength of 485 nm and a detection wavelength of 525 nm was measured. S1P and the subject compound prepared in medium so that the concentration was 10-fold that of the final concentration (final DMSO concentration of 0.1%). The solution was added 18 seconds after the fluorescence measurement was started, and then fluorescence intensity was continuously measured every 1.5 seconds until 100 seconds after addition. A value (fluorescence increase) obtained by subtracting the minimum fluorescence intensity from the maximum fluorescence intensity was calculated from the measurement data. Taking the difference between the fluorescence increase when the solvent was added and the fluorescence increase when the S1P was allowed to act at 10^−6 M as 100%, the fluorescence increase ratio (%) of the subject compound was calculated. Taking this value as the intracellular calcium mobilization induced activity of the subject compound, the EC50 value was determined using PRISM software (GraphPad). In Table 1, 10 nmol/L>EC50 value ≧1 nmol/L is indicated as a +, and 1 nmol/L>EC50 value is indicated as a ++.

human S1P1 receptor = target: T2, human S1P1 receptor (Homo sapiens, UniProt P21453); assay: Intracellular calcium mobilization induced test, hS1P1 receptors expressing CHO-K1 cells
T2 construct: expressed in transfected cells; host or cells: CHO-K1
Procedure: as §1, §2

human S1P4 receptor = target: T3, human S1P4 receptor (Homo sapiens, UniProt O95977); assay: Intracellular calcium mobilization induced test, hS1P4 receptors expressing CHO-K1 cells
T3 construct: expressed in transfected cells; host or cells: CHO-K1
T3 sequence (O95977 1-384): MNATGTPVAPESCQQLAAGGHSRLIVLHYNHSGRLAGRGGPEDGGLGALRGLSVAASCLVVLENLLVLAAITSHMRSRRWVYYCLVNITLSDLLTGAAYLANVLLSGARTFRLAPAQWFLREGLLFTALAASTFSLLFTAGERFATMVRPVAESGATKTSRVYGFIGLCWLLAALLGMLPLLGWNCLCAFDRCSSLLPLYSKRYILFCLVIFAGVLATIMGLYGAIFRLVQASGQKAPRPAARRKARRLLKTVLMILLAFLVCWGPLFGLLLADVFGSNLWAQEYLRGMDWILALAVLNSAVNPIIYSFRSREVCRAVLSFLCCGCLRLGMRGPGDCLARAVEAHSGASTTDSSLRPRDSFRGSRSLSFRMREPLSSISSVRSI
Procedure: as §1, §2

T2 sequence (P21453 whole entry): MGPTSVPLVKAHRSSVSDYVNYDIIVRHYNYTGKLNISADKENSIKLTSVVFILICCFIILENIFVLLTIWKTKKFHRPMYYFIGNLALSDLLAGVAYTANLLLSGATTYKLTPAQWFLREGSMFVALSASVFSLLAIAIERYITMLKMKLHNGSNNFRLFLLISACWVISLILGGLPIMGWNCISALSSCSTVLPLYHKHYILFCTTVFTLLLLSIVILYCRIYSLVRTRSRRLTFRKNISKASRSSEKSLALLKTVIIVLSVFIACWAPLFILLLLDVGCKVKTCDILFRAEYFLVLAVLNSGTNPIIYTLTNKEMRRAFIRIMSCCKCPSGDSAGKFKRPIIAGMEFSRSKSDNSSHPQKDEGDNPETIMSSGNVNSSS
T1 sequence (Q99500 whole entry): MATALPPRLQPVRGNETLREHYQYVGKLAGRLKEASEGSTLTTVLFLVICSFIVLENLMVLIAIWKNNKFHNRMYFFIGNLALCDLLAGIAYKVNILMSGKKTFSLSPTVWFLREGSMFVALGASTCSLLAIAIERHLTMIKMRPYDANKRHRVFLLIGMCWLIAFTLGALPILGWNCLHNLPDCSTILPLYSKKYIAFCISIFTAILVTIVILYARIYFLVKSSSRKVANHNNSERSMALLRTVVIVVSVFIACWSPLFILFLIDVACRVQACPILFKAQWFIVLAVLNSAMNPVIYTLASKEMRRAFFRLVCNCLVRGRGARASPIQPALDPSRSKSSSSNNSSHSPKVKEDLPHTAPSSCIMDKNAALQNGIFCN

| EC50 (human S1P3 receptor) [µM] | EC50 (human S1P1 receptor) [µM] | EC50 (human S1P4 receptor) [µM] | SMILES |
| --- | --- | --- | --- |
| > 10 | 0.001 to 0.01 | < 0.001 | C[C@@](N)(CCCc1ccc(Sc2cccc(Cl)c2)cc1Cl)COP(=O)(O)O [Example 48, (R)-2-amino-5-[2-chloro-4-(3-chlorophenylthio)phenyl]-2-methylpentyl phosphonic acid monoester] |
| > 10 | < 0.001 | 0.001 to 0.01 | C[C@@](N)(CCCc1ccc(Sc2cccc(C(F)(F)F)c2)cc1Cl)COP(=O)(O)O [Example 41, (R)-2-amino-5-[2-chloro-4-(3-trifluoromethylphenylthio)phenyl]-2-methylpentyl phosphoric acid monoester] |
| > 10 | 0.001 to 0.01 | 0.001 to 0.01 | C[C@@](N)(CCCc1ccc(Sc2cccc(C(F)F)c2)cc1Cl)COP(=O)(O)O [Example 51, (R)-2-amino-5-[2-chloro-4-(3-difluoromethylphenylthio)phenyl]-2-methylpentyl phosphonic acid monoester] |
| > 10 | < 0.001 | 0.001 to 0.01 | C[C@@](N)(CCCc1ccc(Sc2cccc(C(F)(F)F)c2)cc1F)COP(=O)(O)O [Example 49, (R)-2-amino-5-[2-fluoro-4-(3-trifluoromethylphenylthio)phenyl]-2-methylpentyl phosphonic acid monoester] |
| > 10 | < 0.001 | 0.001 to 0.01 | CCC[C@@](N)(CCCc1ccc(Sc2cccc(C(F)(F)F)c2)cc1Cl)COP(=O)(O)O [Example 50, (R)-2-amino-5-[2-chloro-4-(3-trifluoromethylphenylthio)phenyl]-2-propylpentyl phosphonic acid monoester] |
| > 10 | < 0.001 | 0.001 to 0.01 | C[C@@](N)(CCc1ccc(Sc2cccc(C(F)(F)F)c2)cc1Cl)COP(=O)(O)O [Example 43] |

Continued, molecule first:

| SMILES | EC50 (human S1P3 receptor) [µM] | EC50 (human S1P1 receptor) [µM] | EC50 (human S1P4 receptor) [µM] |
| --- | --- | --- | --- |
| CCc1cccc(Sc2ccc(CC[C@@](C)(N)COP(=O)(O)O)c(Cl)c2)c1 [Example 44, (R)-2-amino-4-[2-chloro-4-(3-ethylphenylthio)phenyl]-2-methylbutyl phosphonic acid monoester] | > 10 | < 0.001 | 0.001 to 0.01 |
| C[C@@](N)(CCc1ccc(Oc2cccc(C(F)(F)F)c2)cc1Cl)COP(=O)(O)O [Example 42, (R)-2-amino-4-[2-chloro-4-(3-trifluoromethylphenoxy)phenyl]-2-methylbutyl phosphoric acid monoester] | > 10 | < 0.001 | 0.001 to 0.01 |
| Cc1cccc(Oc2ccc(CCC[C@@](C)(N)COP(=O)(O)O)c(Cl)c2)c1 [Example 45, (R)-2-amino-5-[2-chloro-4-(3-methylphenoxy)phenyl]-2-methylpentyl phosphonic acid monoester] | > 10 | < 0.001 | 0.001 to 0.01 |
| CCc1cccc(Sc2ccc(CCC[C@@](C)(N)COP(=O)(O)O)c(Cl)c2)c1 [Example 46, (R)-2-amino-5-[2-chloro-4-(3-ethylphenylthio)phenyl]-2-methylpentyl phosphonic acid monoester] | > 10 | < 0.001 | 0.001 to 0.01 |
| C[C@@](N)(CCCc1ccc(Oc2cccc(C(F)(F)F)c2)cc1Cl)COP(=O)(O)O [Example 40, (R)-2-amino-5-[2-chloro-4-(3-trifluoromethylphenoxy)phenyl]-2-methylpentyl phosphoric acid monoester] | > 10 | < 0.001 | 0.001 to 0.01 |
| CCCc1cccc(Oc2ccc(CCC[C@@](C)(N)COP(=O)(O)O)c(Cl)c2)c1 [Example 47, (R)-2-amino-5-[2-chloro-4-(3-propylphenoxy)phenyl]-2-methylpentyl phosphonic acid monoester] | > 10 | < 0.001 | 0.001 to 0.01 |
